Experiments:
[1] = system: vascular smooth muscle (thoracic aorta); assay: In vitro vascular smooth muscle experiment (norepinephrine-induced contraction of thoracic aorta rings); set-up: species or system Wistar rats; conditions: isolated rat thoracic aorta rings, norepinephrine 10^−7 mol/L
Protocol: Healthy male Wistar rats were hit head to cause faint. The abdominal cavity was quickly cut, and the thoracic aorta was taken out. The attached tissue was separated and cut into 2-3 mm vascular rings. The experiment was carried out in the same manner as in urethral smooth muscle experiment. The resting tension applied was 1 g, and when baseline was stabilized, norepinephrine was added with a final concentration of 10^−7 mol/L in bath tube. When the contraction curve reached the highest point, rinse was performed immediately to recover to baseline levels. When baseline was stabilized, test drug with different concentrations was added respectively, and incubated 3-5 mins. 20 μL 1×10^−4 M norepinephrine was added with a final concentration of 10^−7 mol/L in bath tube, and contraction curve was recorded.

α1A-AR = biological target: T1, α1A-AR (Homo sapiens, UniProt P35348); assay: Tag-lite receptor binding assay, HEK293 cells expressing SNAP-α1A-AR; conditions: for IC50: Tag-lite binding, HEK293 SNAP-α1A-AR; for α1B/α1A: ratio of Tag-lite binding values
T1 construct: expressed in transfected cells; host or cells: HEK293
T1 sequence (P35348 1-466): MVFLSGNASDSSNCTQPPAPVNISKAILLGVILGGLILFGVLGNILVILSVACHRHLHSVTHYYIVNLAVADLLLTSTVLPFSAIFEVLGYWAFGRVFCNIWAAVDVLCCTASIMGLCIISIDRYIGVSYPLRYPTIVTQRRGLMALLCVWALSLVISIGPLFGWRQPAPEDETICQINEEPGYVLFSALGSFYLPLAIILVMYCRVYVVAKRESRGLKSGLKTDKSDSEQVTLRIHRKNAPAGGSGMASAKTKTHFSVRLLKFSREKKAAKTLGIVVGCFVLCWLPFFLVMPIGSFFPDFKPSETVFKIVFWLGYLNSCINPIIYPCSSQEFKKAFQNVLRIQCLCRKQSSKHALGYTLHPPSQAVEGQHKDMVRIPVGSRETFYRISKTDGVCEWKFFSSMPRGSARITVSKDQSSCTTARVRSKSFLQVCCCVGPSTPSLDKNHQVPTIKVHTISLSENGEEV
Excerpt: (§1) Tag-lite assay was used to study receptor binding activity. Tag-lite assay was a combination of SNAP-Tag and HTRF technology, and was used to analyze surface receptors on live cell. SNAPs were small tag fusion proteins which could irreversibly, specifically and covalently bind to substrates via benzylmethyl, and the substrates were benzylmethyl guanine and benzylmethyl cytosine. Substrates and various dyes formed derivatives, and through covalent reaction, the dye was labeled onto SANPs. Plasmid was constructed using pSNAP and α1-AR encoding gene. After transfection into cells, N-terminal fusion protein of SNAP and α1-AR was expressed. The substrate and HTRF fluorescent dye (donor compound Lumi4-Tb) formed a derivative which reacted with SANP-α1-AR fusion protein so that Tb was labeled onto α1-AR. After adding acceptor fluorescent dye-labeled ligand, the receptor and ligand binding experiment was performed.
(§2) HEK293 cells stably expressing SNAP-α1A-AR, SNAP-α1B-AR, SNAP-α1D-AR were seeded in 3 cm dishes, and cultured for 24 hours. 100 nM Tag-lite SNAP Lumi4Tb was added and incubated for 1 h in an incubator. Cells were detached and washed with a labeling buffer for 4 times, and then was added into a 384-well plate in a volume of 10 μL per well. […] After incubation at room temperature for 1 hour, fluorescence intensity changes caused by cell receptor and ligand changes were detected using 665 nm (acceptor) and 620 nm (donor) at same time.
(§3) After incubation with different drugs, the reaction rate of cells to 1-AR fluorescein-labeled known ligand was calculated as follows: Reaction rate %=(D−B)/(S−B)*100%
(§4) The reaction rate of the same drug at different doses was tested using GraphPad Prism software by non-linear regression analysis, and the dose-response curve was obtained and Ki values was measured. Data were obtained from three separate experiments, and each experiment includes three duplicate wells.

urethra smooth muscle = assay: In vitro urethra smooth muscle experiment (norepinephrine-induced contraction); set-up: species or system Wistar rats; Urethra inhibition rate (%): concentration or dose not given beside the values; conditions: for IC50: isolated rat prostatic urethra, norepinephrine 3×10^−4 mol/L; for Urethra inhibition rate (%): norepinephrine-induced contraction; for Aorta/Urethra: selectivity ratio of IC50 values
Protocol: Healthy male Wistar rats were hit head to cause faint. The abdominal cavity and the pubic symphysis was quickly cut so as to quickly remove the prostatic urethra, which was immediately placed into a dish filled with 4° C. Kerbs-Henseleit solution (K-H solution). The surrounding tissue were carefully separated, and muscle strips about 3-5 mm were obtained, and the lower end was fixed onto a 20 mL of thermostatic bath and the upper end was connected onto a pressure transducer. Nutrient liquid was K-H solution, and carbogen (95% oxygen and 5% carbon dioxide) was aerated, and the bath temperature was 37° C., and resting tension applied was 0.5 g. The nutrient liquid was replaced every 6-8 mins. Until baseline stabilized, norepinephrine was added with a final concentration of 3×10^−4 mol/L in bath tube. When the contraction curve reached the highest point, it was rinsed immediately to recover to baseline levels. When baseline was stabilized, test drug with different concentrations was added respectively, and incubated 3-5 mins. 60 μL 1×10^−1 M norepinephrine was added with a final concentration of 3×10^−4 mol/L in bath tube, and the contraction curve was recorded.

α1B-AR = biological target: T2, α1B-AR (Homo sapiens, UniProt P35368); assay: Tag-lite receptor binding assay, HEK293 cells expressing SNAP-α1B-AR
T2 construct: expressed in transfected cells; host or cells: HEK293
T2 sequence (P35368 1-520): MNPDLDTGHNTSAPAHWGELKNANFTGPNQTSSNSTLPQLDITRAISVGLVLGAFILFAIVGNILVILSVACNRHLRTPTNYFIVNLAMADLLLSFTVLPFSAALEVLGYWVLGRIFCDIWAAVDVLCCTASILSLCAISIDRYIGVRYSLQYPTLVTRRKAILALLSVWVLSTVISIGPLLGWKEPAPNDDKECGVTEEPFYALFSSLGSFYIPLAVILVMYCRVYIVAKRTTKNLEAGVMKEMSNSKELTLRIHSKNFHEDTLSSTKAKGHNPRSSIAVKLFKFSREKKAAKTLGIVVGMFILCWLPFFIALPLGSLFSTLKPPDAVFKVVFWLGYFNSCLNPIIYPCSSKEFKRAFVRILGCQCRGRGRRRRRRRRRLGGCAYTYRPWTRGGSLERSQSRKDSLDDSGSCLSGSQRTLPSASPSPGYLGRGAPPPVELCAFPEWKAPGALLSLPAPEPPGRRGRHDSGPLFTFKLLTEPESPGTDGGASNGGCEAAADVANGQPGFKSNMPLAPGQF
Excerpt: as §1, §2, §3, §4

| Structure (SMILES) | IC50 [1] [nM] | IC50 (α1A-AR) [nM] | α1B/α1A (α1A-AR) | IC50 (urethra smooth muscle) [nM] | selectivity (Aorta/Urethra) relative to Silodosin (urethra smooth muscle; isolated rat tissues) [folds] | selectivity (Aorta/Urethra) relative to tamsulosin (urethra smooth muscle; isolated rat tissues) [folds] | urethra suppression rate compared with positive drugs (urethra smooth muscle; isolated rat urethra) | Urethra inhibition rate (%) (urethra smooth muscle; isolated rat urethra) | Aorta/Urethra (urethra smooth muscle; isolated rat tissues) | IC50 (α1B-AR) [nM] |
| --- | --- | --- | --- | --- | --- | --- | --- | --- | --- | --- |
| COc1cc2c(cc1OC)CN1CCc3cc4c(cc3[C@@H]1C2)OCO4 [DC037009, S-(−)-2,3-methylenedioxy-10,11-dimethoxy-5,8,13,13a-tetrahydro-6H-dibenzo[a,g]quinolizine] | 1420 | 2.83 | 45.3 | 1.66 | 11 | 1671 | comparable to that of the positive drugs | 80 | 873 | 128 |
| COc1cc2c(cc1OCc1ccccc1)C[C@H]1c3cc4c(cc3CCN1C2)OCO4 [DC037016] | 10000 | 16.6 | 33.8 | 5.12 | – | – | – | 38 | 1953 | 560 |
| C[C@H](Cc1cc2c(c(C(N)=O)c1)N(CCCO)CC2)NCCOc1ccccc1OCC(F)(F)F [Silodosin, reference compound] | 63 | 0.07 | 8.7 | 0.82 | – | – | – | 88 | 76.8 | 0.61 |
